Each structure is given as a SMILES string. Numbered stars: 1 amine (or outer) side, 2 acyl side, 3 side chain; on linkers, the order of the positions; unused ones are H or OH. Bridge positions count the residues as written; N and C are the ends. Square brackets hold non-standard residues; d marks the D form. Peptide text beside a SMILES is read from it. * marks the point of attachment. ξ: configuration not given here. X13 = O=C(O)CN1CCN(CC(=O)O)CCN(CC(=O)N2CCN(Cc3cc(C[*:1])cc(C[*:2])c3)CC2)CCN(CC(=O)O)CC1; X7 = O=C(CCP(=O)(O)CN1CCN(CP(=O)(O)CO)CCN(CP(=O)(O)CO)CC1)NCCSCc1cc(C[*:1])cc(C[*:2])c1; Pro(trans-4-Ph) = O=C(O)[C@@H]1C[C@@H](c2ccccc2)CN1; Oic = O=C(O)[C@@H]1C[C@@H]2CCCC[C@@H]2N1; Phe(4-Cl) = N[C@@H](Cc1ccc(Cl)cc1)C(=O)O; Met(O2) = CS(=O)(=O)CC[C@H](N)C(=O)O; mXylylene = c1cc(C[*:1])cc(C[*:2])c1; Hexanoyl = CCCCCC(=O)*; Aib = CC(C)(N)C(=O)O; ξC = NC(CS)C(=O)O; Sar = CNCC(=O)O

In test [1] the target is Human recombinant FAP (Homo sapiens, UniProt Q12884). Put plainly: FRET-based FAP protease activity assay. In kind it is biochemical. Set-up: purchased R&D systems 3715-SE.
Human recombinant FAP, sequence (Q12884 whole entry): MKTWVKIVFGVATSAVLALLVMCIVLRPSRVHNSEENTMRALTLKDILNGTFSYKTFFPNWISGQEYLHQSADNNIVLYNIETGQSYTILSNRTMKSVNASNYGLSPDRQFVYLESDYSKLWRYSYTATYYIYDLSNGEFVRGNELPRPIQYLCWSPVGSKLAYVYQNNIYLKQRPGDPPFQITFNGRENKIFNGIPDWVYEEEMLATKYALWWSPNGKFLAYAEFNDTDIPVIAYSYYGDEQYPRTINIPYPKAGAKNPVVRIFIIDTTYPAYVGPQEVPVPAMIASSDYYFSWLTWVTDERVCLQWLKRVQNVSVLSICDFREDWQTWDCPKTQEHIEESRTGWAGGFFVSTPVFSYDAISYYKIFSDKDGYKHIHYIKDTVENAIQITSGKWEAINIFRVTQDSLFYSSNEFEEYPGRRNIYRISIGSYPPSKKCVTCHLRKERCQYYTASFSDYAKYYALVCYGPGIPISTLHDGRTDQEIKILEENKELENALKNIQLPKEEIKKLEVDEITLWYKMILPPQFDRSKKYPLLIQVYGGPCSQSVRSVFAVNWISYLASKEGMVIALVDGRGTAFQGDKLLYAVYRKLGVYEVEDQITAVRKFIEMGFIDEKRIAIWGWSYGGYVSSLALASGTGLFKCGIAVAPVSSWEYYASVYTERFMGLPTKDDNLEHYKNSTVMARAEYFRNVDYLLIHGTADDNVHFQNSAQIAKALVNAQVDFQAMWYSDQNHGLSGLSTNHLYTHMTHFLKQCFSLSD
Test [2] has as its target T1, FAP-expressing human WI-38 fibroblasts (Homo sapiens, UniProt Q12884).
T1 construct: FAP-expressing human WI-38 fibroblasts (ECACC) were cultured in EMEM; host or cells: WI-38 human fibroblasts
Kind of test: Competitive FACS binding assay. Particulars: for pIC50 Category (FACS): FAP-expressing human WI-38 fibroblasts. The protocol: Cells were analyzed in an Attune NxT flow cytometer. […] […].
Cells were analyzed in an Attune NxT flow cytometer. […]
For orientation: A flow cytometer gives signals particle by particle.

[3] abbreviates: pIC50 Category (Activity), FRET-based FAP protease activity assay, recombinant human FAP, 37° C.
The mark [4] stands for this setting: pIC50 Category (Activity), FRET-peptide substrate, 37° C.

T1 sequence (Q12884 whole entry): as above

With `CCCCCC(=O)N[C@H]1CSCc2cc(CSCCNC(=O)CCP(=O)(O)CN3CCN(CP(=O)(O)CO)CCN(CP(=O)(O)CO)CC3)cc(c2)CSCC(C(=O)O)NC(=O)[C@H](Cc2ccccc2)NC(=O)[C@H](CCC(=O)O)NC(=O)[C@H]([C@@H](C)O)NC(=O)[C@@H]2CCCN2C(=O)[C@@H]2CCCN2C1=O` (stereo partly drawn) [3BP-4818, Hex-[Cys(tMeBn(NOPO-AET))-Pro-Pro-Thr-Glu-Phe-Cys]-OH] (Hexanoyl-CPPTEF[ξC]-OH; linker 1-7 via X7), the IC50 (usually the concentration needed to halve the response being measured) in test [1] (pIC50 Category (activity), Recombinant human FAP) is 10 to 79.4 nM; in test [2], 10 to 79.4 nM.
With `CCCCCC(=O)N[C@H]1CSCc2cccc(c2)CSC[C@@H](C(N)=O)NC(=O)[C@H](Cc2ccccc2)NC(=O)[C@H](CCS(C)(=O)=O)NC(=O)[C@H]([C@@H](C)O)NC(=O)[C@@H]2CCCN2C(=O)[C@@H]2CCCN2C1=O` [3BP-3356, Hex-[Cys(3MeBn)-Pro-Pro-Thr-Moo-Phe-Cys]-NH2] (Hexanoyl-CPPT[Met(O2)]FC-NH2; linker 1-7 via mXylylene), the IC50 in test [1] (setting [3]) and in test [2] was more than 1000 nM each time.
For the compound `CCCCNC(=O)N[C@H]1CSCc2cc(CSCCNC(=O)CCP(=O)(O)CN3CCN(CP(=O)(O)CO)CCN(CP(=O)(O)CO)CC3)cc(c2)CSC[C@@H](C(=O)O)NC(=O)[C@H](Cc2ccccc2)NC(=O)[C@H](CCC(N)=O)NC(=O)[C@H]([C@@H](C)O)NC(=O)[C@@H]2CCCN2C(=O)[C@@H]2CCCN2C1=O` [3BP-5260, nBu-CAyl-[C(tMeBn(GaNOPO-AET))-PPTQFC]-OH], the “pIC50 Category (activity)” value in test [1] (Recombinant human FAP) was “A (pIC50 category A stands for pIC50 values >8.0)”. For the same compound, the “pIC50 Category (FACS)” value in test [2] is listed as “A (pIC50 category A stands for pIC50 values >8.0)”.
Take `C[C@@H](O)[C@@H]1NC(=O)[C@@H]2CCCN2C(=O)[C@@H]2CCCN2C(=O)[C@@H](NC(=O)[C@H]2CCCO2)CSCc2cc(CSCCNC(=O)CN3CCN(CC(=O)O)CCN(CC(=O)O)CCN(CC(=O)O)CC3)cc(c2)CSC[C@@H](C(=O)O)NC(=O)[C@H](Cc2ccccc2)NC(=O)[C@H](CCC(N)=O)NC1=O` [3BP-3911, Rth-[Cys(tMeBn(DOTA-AET))-Pro-Pro-Thr-Gln-Phe-Cys]-OH]: the IC50 in test [1] (setting [4]) and in test [2] was 10 to 79.4 nM throughout.
`CCCCCC(=O)N[C@H]1CSCc2cccc(c2)CSC[C@@H](C(N)=O)NC(=O)[C@H](Cc2ccccc2)NC(=O)[C@H](CCC(=O)O)NC(=O)[C@H]([C@@H](C)O)NC(=O)[C@@H]2CCCN2C(=O)CN(C)C1=O` [3BP-3347, Hex-[Cys(3MeBn)-Nmg-Pro-Thr-Glu-Phe-Cys]-NH2] (Hexanoyl-C[Sar]PTEFC-NH2; linker 1-7 via mXylylene): the results for the IC50 in test [1] (setting [3]) and in test [2] were 10 to 79.4 nM and 100 to 794 nM, respectively.
For `CCCCCC(=O)N[C@H]1CSCc2cc(cc(CN3CCN(C(=O)CN4CCN(CC(=O)O)CCN(CC(=O)O)CCN(CC(=O)O)CC4)CC3)c2)CSC[C@@H](C(=O)N[C@@H](CC(=O)O)C(N)=O)NC(=O)[C@H]([C@@H](C)O)NC(=O)[C@@H]2CCCN2C(=O)[C@H](Cc2ccccc2)NC(=O)[C@H](CCC(N)=O)NC(=O)[C@@H]2CCCN2C1=O` [3BP-3857, Hex-[Cys(tMeBn(DOTA-PP))-Pro-Gln-Phe-Pro-Thr-Cys]-Asp-NH2] (Hexanoyl-CPQFPTCD-NH2; linker 1-7 via X13), in that order: 100 to 794 nM and 100 to 794 nM.
For `CCCCCC(=O)N[C@H]1CSCc2cccc(c2)CSC[C@@H](C(N)=O)NC(=O)[C@H](Cc2ccccc2)NC(=O)[C@H](CCC(=O)O)NC(=O)[C@H]([C@@H](C)O)NC(=O)[C@@H]2C[C@@H](c3ccccc3)CN2C(=O)[C@@H]2CCCN2C1=O` [3BP-3353, Hex-[Cys(3MeBn)-Pro-Eay-Thr-Glu-Phe-Cys]-NH2] (Hexanoyl-CP[Pro(trans-4-Ph)]TEFC-NH2; linker 1-7 via mXylylene), in that order: 100 to 794 nM and more than 1000 nM.
As to `CCCCCC(=O)N[C@H]1CSCc2cccc(c2)CSC[C@@H](C(N)=O)NC(=O)[C@H](Cc2ccc(Cl)cc2)NC(=O)[C@H](CCC(=O)O)NC(=O)[C@H]([C@@H](C)O)NC(=O)[C@@H]2CCCN2C(=O)[C@@H]2CCCN2C1=O` [3BP-3369, Hex-[Cys(3MeBn)-Pro-Pro-Thr-Glu-Pcf-Cys]-NH2] (Hexanoyl-CPPTE[Phe(4-Cl)]C-NH2; linker 1-7 via mXylylene), the IC50 in test [1] (setting [3]) and in test [2] was 100 to 794 nM throughout.
For `C[C@@H](O)[C@@H]1NC(=O)[C@@H]2CCCN2C(=O)[C@@H]2CCCN2C(=O)[C@@H](NC(=O)NC2CCCC2)CSCc2cc(CSCCNC(=O)CN3CCN(CC(=O)O)CCN(CC(=O)O)CCN(CC(=O)O)CC3)cc(c2)CSC[C@@H](C(=O)O)NC(=O)[C@H](Cc2ccccc2)NC(=O)[C@H](CCC(N)=O)NC1=O` [3BP-3917, Cpentyl-CAyl-[Cys(tMeBn(DOTA-AET))-Pro-Pro-Thr-Gln-Phe-Cys]-OH], the IC50 in test [1] (setting [4]) and in test [2] was 10 to 79.4 nM each time.
Regarding `C[C@@H](O)[C@@H]1NC(=O)[C@@H]2CCCN2C(=O)[C@@H]2CCCN2C(=O)[C@@H](NC(=O)CCCCCN)CSCc2cccc(c2)CSC[C@@H](C(N)=O)NC(=O)[C@H](Cc2ccccc2)NC(=O)[C@H](CCC(N)=O)NC1=O` [3BP-3759, H-Ahx-[Cys(3MeBn)-Pro-Pro-Thr-Gln-Phe-Cys]-NH2], the IC50 in test [1] (setting [3]) and in test [2] was more than 1000 nM throughout.
As for `CCCCCC(=O)N[C@H]1CSCc2cc(CSCCNC(=O)CCP(=O)(O)CN3CCN(CP(=O)(O)CO)CCN(CP(=O)(O)CO)CC3)cc(c2)CSC[C@@H](C(=O)O)NC(=O)[C@H](Cc2ccccc2)NC(=O)[C@H](CCC(=O)O)NC(=O)[C@H]([C@@H](C)O)NC(=O)[C@@H]2CCCN2C(=O)[C@@H]2CCCN2C1=O` [3BP-4816, Hex-[C(tMeBn(GaNOPO-AET))-PPTEFC]-OH] (Hexanoyl-CPPTEFC-OH; linker 1-7 via X7), the “pIC50 Category (activity)” value in test [1] (Recombinant human FAP) is “B (category B for pIC50 values between 7.1 and 8.0)”. In addition, the “pIC50 Category (FACS)” value in test [2] is “B (category B for pIC50 values between 7.1 and 8.0)”.
`CSCC[C@H](NC(C)=O)C(=O)N[C@H]1CSCc2cccc(c2)CSC[C@@H](C(=O)N[C@@H](CC(=O)O)C(=O)N[C@@H](Cc2c[nH]cn2)C(=O)N[C@@H](Cc2ccccc2)C(=O)N[C@@H](CCCNC(=N)N)C(=O)N[C@@H](CC(=O)O)C(N)=O)NC(=O)[C@H](Cc2ccccc2)NC(=O)[C@H](CCC(=O)O)NC(=O)[C@H]([C@@H](C)O)NC(=O)[C@@H]2C[C@@H]3CCCC[C@@H]3N2C(=O)[C@@H]2CCCN2C1=O` [3BP-3217, Ac-Met-[Cys(3MeBn)-Pro-Oic-Thr-Glu-Phe-Cys]-Asp-His-Phe-Arg-Asp-NH2] (Ac-MCP[Oic]TEFCDHFRD-NH2; linker 2-8 via mXylylene): the IC50 in test [1] (setting [3]) and in test [2] was 100 to 794 nM throughout.
On to `CSCC[C@H](NC(C)=O)C(=O)N[C@H]1CSCc2cccc(c2)CSC[C@@H](C(=O)N[C@@H](CC(=O)O)C(=O)N[C@@H](Cc2c[nH]cn2)C(=O)N[C@@H](Cc2ccccc2)C(=O)N[C@@H](CCCNC(=N)N)C(=O)N[C@@H](CC(=O)O)C(N)=O)NC(=O)[C@H](Cc2ccccc2)NC(=O)[C@H](CCC(=O)O)NC(=O)[C@H]([C@@H](C)O)NC(=O)[C@@H]2CCCN2C(=O)C(C)(C)NC1=O` [3BP-3204, Ac-Met-[Cys(3MeBn)-Aib-Pro-Thr-Glu-Phe-Cys]-Asp-His-Phe-Arg-Asp-NH2] (Ac-MC[Aib]PTEFCDHFRD-NH2; linker 2-8 via mXylylene), for which the IC50 in test [1] (setting [3]) and in test [2] was 10 to 79.4 nM each time.
